Measured values: PMC12196043, “In Vivo PK-PD and Drug–Drug Interaction Study of Dorzagliatin for the Management of PI3Kα Inhibitor-Induced Hyperglycemia” (Pharmaceuticals, 2025)
Values after ≈ are worked out from the molar mass of the structure shown. Values joined by “and” are separate entries in the source; they are usually repeats but may differ in a detail not shown here. Equal entries are not always repeated. Where two headings read alike, the source gives them in different places. Each block holds one compound with its values, some of them ahead of it.

Legend:
[1] = system: CYP1A2, 2A6, 2C9, 2C19, 2D6, 2E1, CYP3A4/5; set-up: method as in ref 32 = [32]; 32. Wang J. Zhao Z. Xu W. Hu X. Jin P. First Marketed Glucokinase Activator for Antidiabetic Therapy: Dorzagliatin Chin. Pharm. J. 2024 59 651 656; settings: in vitro studies; cited from earlier work
[2] = system: fasting plasma glucose (∆FPG); assay: PK/PD sigmoid Emax model of dorzagliatin plasma concentration vs ∆FPG; assay type: in vivo, BALB/c nude mice
Procedure: To further characterize the pharmacokinetics of the compounds, a two-compartment model with first-order absorption was developed using the Phoenix Model module in Phoenix software. The AIC method was applied to identify the most suitable pharmacokinetic model. This model facilitated the comprehensive evaluation of the pharmacokinetic behavior of the drugs under investigation.
To evaluate the effect of the test compounds on blood glucose levels, 10 μL of blood was collected from the tail veins of mice at baseline (time 0) and at predetermined time points (0.5, 1, 2, 4, 6, and 8 h) post-administration. Blood glucose levels were measured using a OneTouch Ultra glucometer. Changes in FPG levels over time were monitored and analyzed. ∆FPG was calculated using Equation (5):(5) ∆FPG=FPGcontrol−FPGexp/FPGcontrol×100% where: • FPGexp represents the FPG levels in the dorzagliatin group, dorzagliatin + WX390 group, or the dorzagliatin + BYL719 group. • FPGcontrol represents the FPG levels in the vehicle control group, WX390 group, or BYL719 group.
A preliminary PK/PD interaction model was developed using plasma concentrations and FPG levels in tumor-bearing mice. The relationship between plasma drug concentrations and FPG reduction was described using the Sigmoid Eₘₐₓ model (Equation (6)):(6) E=E0+Emax×Ce^γ/EC50γ+Ce^γ where: • E represents the mean percent blood glucose reduction. • Cₑ indicates the plasma concentration of the drug that elicits a pharmacodynamic response. • E0 is the baseline drug effect. • Eₘₐₓ represents the maximum potential drug effect. • EC50 is the plasma concentration at which 50% of the maximum drug effect is observed. • γ denotes the Hill coefficient, which reflects the steepness of the concentration-effect curve.

[3] = Plasma pharmacokinetics by LC-MS/MS in OVCAR3 xenograft tumor-bearing nude mice; assay type: in vivo, BALB/c nude mice; settings: n = 3
Procedure: (§1) This study, approved by Fudan University Ethics Committee (protocol code: 201904008Z) on 26 April 2019, was conducted in compliance with AAALAC’s International Commission guidelines for laboratory animal evaluation and accreditation. A total of 36 female BALB/c nude mice (6–8 weeks old, weighing 18–20 g) were purchased from Charles River Laboratories (Pinghu, China). The OVCAR3 ovarian cancer cell line (ATCC® HTB-161™) was used to establish human xenografts. OVCAR3 cells (10 × 10^6) suspended in 0.2 mL of Matrigel were subcutaneously inoculated into the dorsal region of each mouse. Tumors were allowed to grow until reaching a volume of ~160 mm^3, typically around 30 days post-inoculation.
(§2) WX390 was prepared in Solvent-1, comprising dimethyl sulfoxide (DMSO): methylcellulose: water at a ratio of 1:1:98 (v/v/v). BYL719 and dorzagliatin were formulated in Solvent-2, consisting of Tween 80: water with 0.5% methylcellulose (MC) solution at a ratio of 0.2:99.8 (v/v). The treatment control was a combination of Solvent-1 and Solvent-2. The test compounds were administered orally as follows: WX390 at 0.2 mg/kg, BYL719 at 25 mg/kg, and dorzagliatin at 10 mg/kg, dissolved in their respective formulations. Due to ethical considerations regarding gavage volume the administration volume across all groups was standardized to 10 μL/g of body weight.
(§3) The experiment involved six treatment groups, each comprising six mice. The groups included: (i) vehicle control, (ii) WX390 (0.2 mg/kg), (iii) BYL719 (25 mg/kg), (iv) dorzagliatin (10 mg/kg), (v) WX390 (0.2 mg/kg) + dorzagliatin (10 mg/kg), and (vi) BYL719 (25 mg/kg) + dorzagliatin (10 mg/kg). All treatments were administered via oral gavage once daily for four weeks. In the combination group of PI3Ki and dorzagliatin, dorzagliatin was administered 30 min prior to PI3Ki.
Following the 4-week treatment period, all experimental groups were fasted 6 h before the last administration until the end of the experiment. Water was not restricted during the fasting period. Blood samples were collected at 0, 0.5, 1, 2, 4, and 8 h after administration. Each mouse had 3 blood collection points, with 50 μL of plasma collected at each point. Mice in each group were allocated to two cohorts: The first cohort underwent blood collection at 0, 1, and 2 h post-administration, while the second cohort was sampled at 0.5, 4, and 8 h post-administration. Terminal blood collection at the 2-h time point for the first cohort was performed via cardiac puncture following euthanasia, during which tumor tissues were concurrently harvested from this cohort. Blood samples were processed through centrifugation (4 °C, 1500× g for 10 min) for plasma separation. All plasma and tumor samples were immediately snap-frozen in liquid nitrogen and stored at −80 °C for subsequent analysis.
The extraction of WX390, BYL719, and dorzagliatin from plasma samples was performed using protein precipitation. Internal standards (IS) included SBL-D3, BNSL-D5, and PLPL-D8 for WX390, BYL719, and dorzagliatin, respectively. Plasma samples (20 μL) were mixed with 20 μL of zinc sulfate aqueous solution (0.1 mol/L) and 200 µL of a 50% methanol solution containing three internal standards followed by vortexing for 10 min. The samples were centrifuged at 4 °C (15,000× g for 5 min). The supernatant (180 μL) was transferred to a clean Eppendorf tube, and a 10 μL aliquot was injected into the LC-MS/MS system.
Chromatographic separations were performed using an AB SCIEX Jasper HPLC system coupled with an AB SCIEX Triple Quad 4500MD mass spectrometer (AB SCIEX, USA). A Phenomenex Kinetex C18 column (100 × 3 mm, 2.6 μm) was used at 40 °C. The flow rate was maintained at 0.4 mL/min with a total run time of 4 min. […]

[4] = system: P-gp; settings: cited from earlier work
[5] = set-up: method as in PMID 35551294; settings: cited from earlier work
[6] = cited from earlier work
[7] = system: OVCAR3 xenograft tumor; assay: In vivo tumor growth, OVCAR3 subcutaneous xenograft tumor model; set-up: species or system BALB/c nude mice; settings: n = 6; for T/C (Relative Tumor Growth Rate) / TGI (Tumor Growth Inhibition): based on tumor volume on day 28, vs vehicle; for Tumor Volume (Day 28): day 28 after administration, oral once daily, Dorz 10 mg/kg, WX390 0.2 mg/kg, BYL719 25 mg/kg, vehicle 1582 mm^3
Procedure: as §1, §2, §3
Tumor dimensions were measured biweekly using a vernier caliper. Tumor volume was calculated using the formula:(1) V=0.5a×b^2 where: • a represents the longest tumor diameter. • b represents the shortest diameter.
The antitumor efficacy of each group was evaluated using TGI or T/C. TGI (%) reflects the rate of tumor growth inhibition and is calculated as follows:(2) TGI%=1−Vend−V0exp/Vend−V0control×100% where: • Vend represents mean tumor volume at the end of treatment in the group. • V0 represents mean tumor volume at the start of treatment in the group. • exp represents the treated groups. • control represents the vehicle control group.
T/C (%) is calculated using the formula:(3) T/C%=TRTV/CRTV×100% where: • TRTV is the Relative Tumor Volume of the treatment group. • CRTV is the Relative Tumor Volume of the negative control group.
The Relative Tumor Volume (RTV) is calculated based on tumor measurement results using the formula:(4) RTV=Vt/V0 where: • V0 is the mean tumor volume at the time of grouping (day 0). • Vt is the mean tumor volume at a given measurement time.
TRTV and CRTV are based on data from the same day.
At the conclusion of the experiment, tumor weights were measured, and the T/C was calculated. Tweight and Cweight represent the tumor weights of the treatment group and the vehicle control group, respectively.

[8] = cited from earlier work; remark: listed apart in the source
[9] = system: CYP3A4; set-up: method as in ref 31 = [31]; 31. FDA Label of PIQRAY® (Alpelisib) FDA Silver Spring, MD, USA 2019; settings: repeated doses of 300 mg BYL719 with midazolam and other substrates, everolimus; cited from earlier work
[10] = human, in vivo; cited from earlier work
[11] = major metabolite BZG791; CYP3A4 to a lesser extent; no reference given; cited from earlier work
[12] = E = mean percent blood glucose reduction (∆FPG)
[13] = Dorz 10 mg/kg measured in Dorz + BYL719 (25 mg/kg) group, oral
[14] = Dorz 10 mg/kg measured in Dorz + WX390 (0.2 mg/kg) group, oral
[15] = monotherapy group, plasma, oral gavage once daily for four weeks, Dorz 10 mg/kg, WX390 0.2 mg/kg, BYL719 25 mg/kg
[16] = co-administration with moderate CYP3A4 inhibitors such as verapamil, fluconazole, erythromycin
[17] = female, BALB/c nude, mouse, plasma, po, 25 mg/kg, PI3Ki measured in combination group with Dorz 10 mg/kg (given 30 min before), WX390 0.2 mg/kg or BYL719 25 mg/kg oral
[18] = female, BALB/c nude, mouse, plasma, po, 25 mg/kg, monotherapy group, plasma, oral gavage once daily for four weeks, Dorz 10 mg/kg, WX390 0.2 mg/kg, BYL719 25 mg/kg

EC50 (∆FPG as indicator) ([2]; dorzagliatin plasma concentration giving 50% of maximum effect, per treatment group): 0.74 µg/mL (≈ 1.6 µM)
AUC0→t [3, 13]: 3953.58 ng·h/mL
Cmax [3, 13]: 2013.33 ng/mL
Tmax [3, 13]: 1.00 h
t1/2 [3, 13]: 1.86 h
AUC0→t [3, 14]: 4657.23 ng·h/mL
Cmax [3, 14]: 1776.67 ng/mL
Tmax [3, 14]: 0.50 h
t1/2 [3, 14]: 2.93 h
AUC0→t [3, 15]: 3287.90 ng·h/mL
Cmax [3, 15]: 1331.00 ng/mL
Tmax [3, 15]: 0.50 h
t1/2 [3, 15]: 2.15 h
SMILES: CC(C)C[C@@H](C(=O)Nc1ccn(C[C@@H](O)CO)n1)N1CC(Oc2ccccc2Cl)=CC1=O [Dorz, Dorzagliatin]
inhibition of CYP1A2, 2A6, 2C9, 2C19, 2D6, 2E1, CYP3A4/5 [1]: does not inhibit
E0 (baseline drug effect) in PK/PD equation [2, 12]: 10
Emax (maximum potential drug effect) in PK/PD equation [2, 12]: 50%
Hill coefficient (γ) ([2]; ∆FPG, per treatment group): 0.80
P-gp substrate status [4]: substrate of P-gp
patients with clinically significant hypoglycemic events (blood glucose < 54 mg/dL) ([5]; 24-week double-blind treatment period, 1 of 310 patients): 0.3%
exposure-adjusted event rate for clinically significant hypoglycemia ([5]; 52-week observation period): 0.006 events per patient-year
time to steady-state plasma pharmacokinetics ([6]; T2DM patients, twice-daily oral administration): ≤ 4 days
AUCtau ([6]; after oral administration): 5570 ng·h/mL
Cmax ([6]; after oral administration): 1090 ng/mL
median Tmax ([6]; after oral administration): 1.31 h
Metabolism [6]: primarily occurs in the liver via cytochrome P450 enzyme 3A4 (CYP3A4)
fold increase in AUC0→t of dorzagliatin [6, 16]: 2.4 fold
fold increase in Cmax of dorzagliatin [6, 16]: 1.2 fold
mean apparent volume of distribution ([6]; single 50 mg oral dose, healthy subjects): 115 L
T/C (Relative Tumor Growth Rate) [7]: 90.81%
TGI (Tumor Growth Inhibition) [7]: 10.19%
Tumor Volume (Day 28) [7]: 1437 ± 172 mm^3

Tmax ([3]; PI3Ki measured in combination group with Dorz 10 mg/kg (given 30 min before), WX390 0.2 mg/kg or BYL719 25 mg/kg oral): 1.00 h
AUC(0-t) [3, 17]: 24800 ng·h/mL
half-life [3, 17]: 6.72 h
Cmax ([3]; female, BALB/c nude, mouse, plasma, po, 25 mg/kg, PI3Ki measured in combination group with Dorz 10 mg/kg (given 30 min before), WX390 0.2 mg/kg or BYL719 25 mg/kg oral, read-out: Cmax): 4210 ng/mL
AUC(0-t) [3, 18]: 29000 ng·h/mL
half-life [3, 18]: 5.33 h
Cmax ([3]; female, BALB/c nude, mouse, plasma, po, 25 mg/kg, monotherapy group, plasma, oral gavage once daily for four weeks, Dorz 10 mg/kg, WX390 0.2 mg/kg, BYL719 25 mg/kg, read-out: Cmax): 4790 ng/mL
Tmax ([3]; female, BALB/c nude, mouse, monotherapy group, plasma, oral gavage once daily for four weeks, Dorz 10 mg/kg, WX390 0.2 mg/kg, BYL719 25 mg/kg, read-out: Tmax): 1 h
SMILES: Cc1nc(NC(=O)N2CCC[C@H]2C(N)=O)sc1-c1ccnc(C(C)(C)C(F)(F)F)c1 [BYL719, alpelisib]
AUC0→24h ([8]; 300 mg/day): 33,224 ng·h/mL
Cmax ([8]; 300 mg/day): 2480 ng/mL
apparent volume of distribution [8]: 114 L
clearance rate [8]: 9.2 L/h
effect of food intake on pharmacokinetic profile [8]: does not significantly affect
plasma protein binding rate [8]: 89%
dose proportionality of exposure ([8]; fed conditions, doses 30 to 450 mg): increases proportionally
CYP3A4 inhibitor status [9]: not a CYP3A4 inhibitor
rate of hyperglycemia, any grade [10]: 63.7%
rate of hyperglycemia, grades 3–4 [10]: 36.6%
treatment discontinuation rate due to hyperglycemia [10]: 6.3%
P-gp inhibitor status [4]: P-gp inhibitor
T/C (Relative Tumor Growth Rate) [7]: 52.85%
TGI (Tumor Growth Inhibition) [7]: 52.46%
Tumor Volume (Day 28) [7]: 836 mm^3 and 836 ± 71 mm^3
metabolic route (in vitro studies) [11]: primarily metabolized through chemical degradation and enzymatic hydrolysis
